Where “and” joins values, the source holds several entries; their conditions need not be identical. Equal entries are not always repeated. Structures can show the parent of a compound that is named as a salt.
Columns and labels:
[1] = in vivo; cited from earlier work
[2] = tested on: domestic cats; conditions: 48 to 50 mg per capita (averaging 10 to 14 mg/kg), one hour after administration
Text: Based on the data obtained by observing animals under stress, the most frequent symptoms of anxiety and fear common to various stressful situations were selected to assess the severity of their abnormal behavior. They included vocalizing, hypersalivation, overgrooming, abnormal (higher or lower) motion activity, soiling (urination and/or defecation), and 'destructive behavior' consisting in signs of aggression, attempts at damaging ambient objects, etc. For each symptom (based on its severity), points from 0 to 2 were given, which subsequently were totalized individually for each animal or, where appropriate, for a whole group of animals to determine an average value.
For each of the 6 symptoms (based on its severity), points from 0 to 2 were given, which subsequently were totalized individually for each animal. Therein, a total score of more than 6 points (out of possible 12) was considered to be indicative of an apparent severity of abnormal (changed) behavior.
To carry out the experiment, 6 domestic cats of different sex and age, weighing 3.5 to 5 kg, were selected, who, according to their owners, felt bad during transportation, showing various forms of abnormal behavior. Herein, the actual presence of stress symptoms and their severity for each cat were assessed from video data provided by their owners. […]

[3] = tested on: male cats
Text: The trials enrolled apparently healthy entire animals (8 male cats and 8 female cats) aged 2 to 6 years, weighing 3 to 4 kg, kept in foster care at BIM Animal Shelter. The females were introduced into the study as they went into estrus. Table XII. Registration details of the cats enrolled in the experiment
Male cats with pronounced signs of heat were placed in individual cages in a dedicated room where 2 female cats in heat were present (in separate cages in the same room). TR Succinate in the tablet form (for the experimental animals) and placebo tablets (for the control animals) were given in accordance with the same design as in the experiment with female cats. Follow-up observation over the animals was carried out in a similar manner.

[4] = tested on: female cats; experiment: Suppression of behavioral signs of heat in female cats
[5] = tested on: White Mice; experiment: Acute oral toxicity testing, intragastric administration (Miller and Tainter); conditions: for % of deaths / Number of Animals dead: 10 per group, 14 days follow-up
Method: (§1) This parameter was evaluated on mice and rats in accordance with a conventional procedure for acute toxicity testing of medicinal products (Example 2).
(§2) In each case, 7 experimental groups and 1 control group of white rats and 7 experimental and 1 control groups of white mice, 10 individuals in each, were formed. The product was administered via an intragastric tube in accordance with the design described in Table I. 1% starch gel was used as the suspending agent.
(§3) Follow-up period was 14 days. The observation included general condition, behavior, feed and water intake, manifestation of intoxication symptoms, possible deaths.

[6] = tested on: White Rats; experiment: as above; conditions: for % of deaths / Number of Animals dead: 10 per group, 14 days follow-up
Method: as §1, §2, §3

[7] = one 100 mg tablet (24 mg active ingredient, 6-8 mg/kg) oral, individual male cats
[8] = female and male cats in heat, single dose 6-8 mg/kg
[9] = one 100 mg tablet (24 mg active ingredient, 6-8 mg/kg) oral, individual female cats
[10] = substance, intragastric, in 1% starch gel
[11] = substance, intragastric, in 1% starch gel, 20160 min

O=c1n(CCCN2CCN(c3cccc(Cl)c3)CC2)nc2ccccn12 [TR, Trazodone]
amount of plasma protein binding [1]: 89-95% | excreted from the body via the kidneys [1]: 75% | excreted unchanged with bile [1]: about 20% | time to reach complete excretion of the substance [1]: 98 h

O=c1n(CCCN2CCN(c3cccc(Cl)c3)CC2)nc2ccccn12 [Trazodone Hydrochloride, reference compound]
sedative action onto the animals [2]: pronounced sedative actions of comparable efficacy

Trazodone Succinate
abnormal behaviors ([3]; in vivo): no abnormal behaviors were observed | Total intensity of heat signs after the product administration (points) after 30 minutes [3, 7]: 5 points (3×) and 6 points and 4 points (2×) | Total intensity of heat signs after the product administration (points) after 3 hours [3, 7]: 1 points (4×) and 2 points (2×) | Total intensity of heat signs after the product administration (points) after 6 hours [3, 7]: 2 points (4×) and 1 points (2×) | sedative action onto the animals [2]: pronounced sedative actions of comparable efficacy | side effects, such as pronounced hypnotic action, atony, slowness or dystaxia ([4]; experimental group female cats, during the experiment): No side effects | start of the sedative action after the product administration [4, 8]: 30 min | time the sedative action remained [4, 8]: at least 6 hours | time to maximum sedative action (substantially complete disappearance of estrous behavior signs) [4, 8]: 1 h | Total intensity of heat signs after the product administration (points) after 30 minutes [4, 9]: 5 points (3×) and 6 points and 4 points (2×) | Total intensity of heat signs after the product administration (points) after 1 hour [4, 9]: 0 points (4×) and 1 points (2×) | Total intensity of heat signs after the product administration (points) after 3 hours [4, 9]: 1 points (5×) and 2 points | Total intensity of heat signs after the product administration (points) after 6 hours [4, 9]: 2 points (4×) and 1 points (2×) | Total intensity of heat signs after the product administration (points) after 8 hours [4, 9]: 4 points (2×) and 1 points (3×) and 5 points | % of deaths ([5]; 400 mg/kg intragastric): 0% | Number of Animals dead ([5]; 400 mg/kg intragastric): 0 | % of deaths ([5]; 800 mg/kg intragastric): 10.0% | Number of Animals dead ([5]; 800 mg/kg intragastric): 1 | % of deaths ([5]; 1600 mg/kg intragastric): 70.0% | Number of Animals dead ([5]; 1600 mg/kg intragastric): 7 | % of deaths ([5]; 2000 mg/kg intragastric): 100.0% | Number of Animals dead ([5]; 2000 mg/kg intragastric): 10 | % of deaths ([5]; 2500 mg/kg intragastric): 100.0% | Number of Animals dead ([5]; 2500 mg/kg intragastric): 10 | % of deaths ([5]; 3000 mg/kg intragastric): 100.0% | Number of Animals dead ([5]; 3000 mg/kg intragastric): 10 | Hazard class according to GOST 12.1.007-76 ([5]; classified from the LD50 values in mice and rats): Hazard Class III | LD16 [5, 10]: 840 mg/kg | LD84 [5, 10]: 1690 mg/kg | LD100 [5, 10]: 1935 mg/kg | LD50 [5, 11]: 1200 (1091.6-1308.4) mg/kg | MTD [5, 11]: 400 mg/kg | % of deaths ([6]; 400 mg/kg intragastric): 0% | Number of Animals dead ([6]; 400 mg/kg intragastric): 0 | % of deaths ([6]; 800 mg/kg intragastric): 20.0% | Number of Animals dead ([6]; 800 mg/kg intragastric): 2 | % of deaths ([6]; 1600 mg/kg intragastric): 40.0% | Number of Animals dead ([6]; 1600 mg/kg intragastric): 4 | % of deaths ([6]; 2700 mg/kg intragastric): 70.0% | Number of Animals dead ([6]; 2700 mg/kg intragastric): 7 | % of deaths ([6]; 3000 mg/kg intragastric): 100.0% | Number of Animals dead ([6]; 3000 mg/kg intragastric): 10 | % of deaths ([6]; 3500 mg/kg intragastric): 100.0% | Number of Animals dead ([6]; 3500 mg/kg intragastric): 10 | LD16 [6, 10]: 760 mg/kg | LD84 [6, 10]: 2730 mg/kg | LD100 [6, 10]: 2945 mg/kg | LD50 [6, 11]: 2300 (2079.5-2520.5) mg/kg | MTD [6, 11]: 400 mg/kg
